# Assays:
# Experiment in all cases: radiometric filter-binding kinase assay, Kinase HotSpot
# Details in all cases: compound 0.5 µM; ATP 10 µM
# ABL1 (human) = ABL1 (human) (UniProt P00519)
# ACVR1 (human) = ACVR1 (human) (UniProt Q04771)
# AURKA (human) = AURKA (human) (UniProt O14965)
# CDC42BPB (human) = CDC42BPB (human) (UniProt Q9Y5S2)
# CDK5 CDK5R1 p35 (human) = CDK5 CDK5R1 p35 (human) (UniProt Q00535+Q15078)
# CHUK (human) = CHUK (human) (UniProt O15111)
# CLK2 (human) = CLK2 (human) (UniProt P49760)
# CSNK1E (human) = CSNK1E (human) (UniProt P49674)
# CSNK2A2 (human) = CSNK2A2 (human) (UniProt P19784)
# DCLK2 (human) = DCLK2 (human) (UniProt Q8N568)
# EGFR (human) = EGFR (human) (UniProt P00533)
# EPHA6 (human) = EPHA6 (human) (UniProt Q9UF33)
# EPHB4 (human) = EPHB4 (human) (UniProt P54760)
# ERBB2 (human) = ERBB2 (human) (UniProt P04626)
# FES (human) = FES (human) (UniProt P07332)
# FGFR1 (human) = FGFR1 (human) (UniProt P11362)
# GRK6 (human) = GRK6 (human) (UniProt P43250)
# MAP3K10 (human) = MAP3K10 (human) (UniProt Q02779)
# MAPK1 (human) = MAPK1 (human) (UniProt P28482)
# MAPK12 (human) = MAPK12 (human) (UniProt P53778)
# MARK2 (human) = MARK2 (human) (UniProt Q7KZI7)
# MYLK (human) = MYLK (human) (UniProt Q15746)
# MYO3B (human) = MYO3B (human) (UniProt Q8WXR4)
# NEK7 (human) = NEK7 (human) (UniProt Q8TDX7)
# NUAK2 (human) = NUAK2 (human) (UniProt Q9H093)
# PAK1 (human) = PAK1 (human) (UniProt Q13153)
# PBK (human) = PBK (human) (UniProt Q96KB5)
# PDGFRB (human) = PDGFRB (human) (UniProt P09619)
# PLK1 (human) = PLK1 (human) (UniProt P53350)
# PLK2 (human) = PLK2 (human) (UniProt Q9NYY3)
# PRKACG (human) = PRKACG (human) (UniProt P22612)
# PRKCE (human) = PRKCE (human) (UniProt Q02156)
# PRKD2 (human) = PRKD2 (human) (UniProt Q9BZL6)
# RAF1 (human) = RAF1 (human) (UniProt P04049)
# STK38 (human) = STK38 (human) (UniProt Q15208)
# STK4 (human) = STK4 (human) (UniProt Q13043)
# TLK2 (human) = TLK2 (human) (UniProt Q86UE8)
# ULK3 (human) = ULK3 (human) (UniProt Q6PHR2)
# WEE1 (human) = WEE1 (human) (UniProt P30291)
# [1] = test system: ARAF (human), P10398 [Y301D/Y302D]
# BRAF (human) = BRAF (human) (UniProt P15056)
# AURKA (human), sequence (O14965 whole entry, looked up): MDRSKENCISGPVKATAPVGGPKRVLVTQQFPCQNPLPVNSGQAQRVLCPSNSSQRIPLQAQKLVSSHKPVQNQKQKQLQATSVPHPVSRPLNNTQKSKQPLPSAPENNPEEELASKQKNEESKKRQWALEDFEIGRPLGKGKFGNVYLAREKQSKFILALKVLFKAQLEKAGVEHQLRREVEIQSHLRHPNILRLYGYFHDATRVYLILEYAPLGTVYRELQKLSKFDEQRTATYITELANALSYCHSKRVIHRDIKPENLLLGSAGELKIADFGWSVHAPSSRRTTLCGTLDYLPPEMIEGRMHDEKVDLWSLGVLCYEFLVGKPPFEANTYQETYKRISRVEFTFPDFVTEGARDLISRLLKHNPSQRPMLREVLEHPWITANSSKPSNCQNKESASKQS
# CLK2 (human), sequence (P49760 whole entry, looked up): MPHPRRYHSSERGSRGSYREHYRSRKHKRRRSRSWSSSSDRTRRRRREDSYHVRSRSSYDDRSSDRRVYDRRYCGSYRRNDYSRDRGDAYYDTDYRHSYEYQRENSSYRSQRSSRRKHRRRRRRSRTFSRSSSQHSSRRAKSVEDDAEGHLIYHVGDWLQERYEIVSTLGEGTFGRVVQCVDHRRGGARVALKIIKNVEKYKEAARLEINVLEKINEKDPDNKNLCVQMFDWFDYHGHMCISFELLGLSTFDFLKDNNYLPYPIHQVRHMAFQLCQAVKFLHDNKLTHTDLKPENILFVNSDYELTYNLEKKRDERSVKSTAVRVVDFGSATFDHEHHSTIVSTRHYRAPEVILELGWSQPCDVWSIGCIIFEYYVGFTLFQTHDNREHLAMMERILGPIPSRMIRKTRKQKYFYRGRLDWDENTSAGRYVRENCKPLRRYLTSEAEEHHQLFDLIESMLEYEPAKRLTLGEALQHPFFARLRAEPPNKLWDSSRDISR
# PBK (human), sequence (Q96KB5 whole entry, looked up): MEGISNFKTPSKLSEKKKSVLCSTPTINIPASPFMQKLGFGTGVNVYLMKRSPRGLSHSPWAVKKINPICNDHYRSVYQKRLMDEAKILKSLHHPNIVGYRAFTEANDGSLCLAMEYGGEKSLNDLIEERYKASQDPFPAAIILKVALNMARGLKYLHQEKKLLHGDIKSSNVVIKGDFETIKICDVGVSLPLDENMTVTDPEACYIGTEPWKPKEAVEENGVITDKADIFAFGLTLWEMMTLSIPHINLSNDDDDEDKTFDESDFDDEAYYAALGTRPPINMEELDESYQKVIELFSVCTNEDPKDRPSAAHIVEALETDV
# PDGFRB (human), sequence (P09619 whole entry, looked up): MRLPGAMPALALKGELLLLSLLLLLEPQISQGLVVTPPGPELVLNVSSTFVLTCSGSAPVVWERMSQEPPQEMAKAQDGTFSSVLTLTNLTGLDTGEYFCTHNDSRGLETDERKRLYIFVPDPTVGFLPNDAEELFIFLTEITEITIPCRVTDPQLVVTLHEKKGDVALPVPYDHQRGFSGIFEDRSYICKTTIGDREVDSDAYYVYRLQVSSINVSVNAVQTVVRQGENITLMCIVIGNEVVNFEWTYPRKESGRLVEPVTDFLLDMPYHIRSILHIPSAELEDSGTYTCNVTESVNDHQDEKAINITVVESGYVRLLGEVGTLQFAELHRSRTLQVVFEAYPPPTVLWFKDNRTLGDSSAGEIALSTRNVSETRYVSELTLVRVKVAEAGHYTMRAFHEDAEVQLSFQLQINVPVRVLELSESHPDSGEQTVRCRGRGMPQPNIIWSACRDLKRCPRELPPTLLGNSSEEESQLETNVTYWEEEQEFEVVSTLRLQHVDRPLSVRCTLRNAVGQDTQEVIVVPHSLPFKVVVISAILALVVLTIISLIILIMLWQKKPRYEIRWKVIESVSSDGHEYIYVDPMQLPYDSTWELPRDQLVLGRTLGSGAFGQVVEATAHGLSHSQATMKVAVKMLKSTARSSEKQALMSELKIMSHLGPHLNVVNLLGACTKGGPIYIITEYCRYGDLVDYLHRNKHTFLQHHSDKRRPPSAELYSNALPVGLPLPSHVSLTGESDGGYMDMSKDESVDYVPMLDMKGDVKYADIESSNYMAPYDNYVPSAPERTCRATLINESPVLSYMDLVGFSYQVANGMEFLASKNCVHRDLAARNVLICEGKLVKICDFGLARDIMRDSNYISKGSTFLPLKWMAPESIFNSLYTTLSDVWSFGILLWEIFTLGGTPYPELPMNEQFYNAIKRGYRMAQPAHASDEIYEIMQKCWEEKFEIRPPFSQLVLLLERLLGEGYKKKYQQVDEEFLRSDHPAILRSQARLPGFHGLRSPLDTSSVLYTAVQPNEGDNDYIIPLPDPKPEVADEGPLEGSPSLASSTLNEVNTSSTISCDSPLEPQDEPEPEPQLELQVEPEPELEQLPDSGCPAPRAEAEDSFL
# MARK2 (human), sequence (Q7KZI7 whole entry, looked up): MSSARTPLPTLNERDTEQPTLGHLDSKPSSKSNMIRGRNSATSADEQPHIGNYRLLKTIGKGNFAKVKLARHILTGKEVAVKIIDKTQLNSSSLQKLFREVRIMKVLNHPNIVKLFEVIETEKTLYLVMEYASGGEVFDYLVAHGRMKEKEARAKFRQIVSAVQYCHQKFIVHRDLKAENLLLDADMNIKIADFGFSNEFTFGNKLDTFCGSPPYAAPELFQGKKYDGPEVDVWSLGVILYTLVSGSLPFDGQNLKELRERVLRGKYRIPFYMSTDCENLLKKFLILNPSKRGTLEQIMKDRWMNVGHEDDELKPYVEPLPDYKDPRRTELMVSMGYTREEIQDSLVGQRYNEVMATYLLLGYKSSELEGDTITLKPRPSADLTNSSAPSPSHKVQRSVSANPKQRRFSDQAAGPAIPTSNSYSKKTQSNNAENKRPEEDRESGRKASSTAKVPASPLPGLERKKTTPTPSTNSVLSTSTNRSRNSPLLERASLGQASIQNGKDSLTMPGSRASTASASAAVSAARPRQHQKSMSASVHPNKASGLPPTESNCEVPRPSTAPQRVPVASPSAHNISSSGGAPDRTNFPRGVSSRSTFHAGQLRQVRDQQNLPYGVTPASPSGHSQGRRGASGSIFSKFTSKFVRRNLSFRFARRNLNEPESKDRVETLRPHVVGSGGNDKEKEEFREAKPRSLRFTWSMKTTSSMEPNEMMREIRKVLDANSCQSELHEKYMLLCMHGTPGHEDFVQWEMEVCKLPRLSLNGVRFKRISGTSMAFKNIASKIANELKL
# MYLK (human), sequence (Q15746 whole entry, looked up): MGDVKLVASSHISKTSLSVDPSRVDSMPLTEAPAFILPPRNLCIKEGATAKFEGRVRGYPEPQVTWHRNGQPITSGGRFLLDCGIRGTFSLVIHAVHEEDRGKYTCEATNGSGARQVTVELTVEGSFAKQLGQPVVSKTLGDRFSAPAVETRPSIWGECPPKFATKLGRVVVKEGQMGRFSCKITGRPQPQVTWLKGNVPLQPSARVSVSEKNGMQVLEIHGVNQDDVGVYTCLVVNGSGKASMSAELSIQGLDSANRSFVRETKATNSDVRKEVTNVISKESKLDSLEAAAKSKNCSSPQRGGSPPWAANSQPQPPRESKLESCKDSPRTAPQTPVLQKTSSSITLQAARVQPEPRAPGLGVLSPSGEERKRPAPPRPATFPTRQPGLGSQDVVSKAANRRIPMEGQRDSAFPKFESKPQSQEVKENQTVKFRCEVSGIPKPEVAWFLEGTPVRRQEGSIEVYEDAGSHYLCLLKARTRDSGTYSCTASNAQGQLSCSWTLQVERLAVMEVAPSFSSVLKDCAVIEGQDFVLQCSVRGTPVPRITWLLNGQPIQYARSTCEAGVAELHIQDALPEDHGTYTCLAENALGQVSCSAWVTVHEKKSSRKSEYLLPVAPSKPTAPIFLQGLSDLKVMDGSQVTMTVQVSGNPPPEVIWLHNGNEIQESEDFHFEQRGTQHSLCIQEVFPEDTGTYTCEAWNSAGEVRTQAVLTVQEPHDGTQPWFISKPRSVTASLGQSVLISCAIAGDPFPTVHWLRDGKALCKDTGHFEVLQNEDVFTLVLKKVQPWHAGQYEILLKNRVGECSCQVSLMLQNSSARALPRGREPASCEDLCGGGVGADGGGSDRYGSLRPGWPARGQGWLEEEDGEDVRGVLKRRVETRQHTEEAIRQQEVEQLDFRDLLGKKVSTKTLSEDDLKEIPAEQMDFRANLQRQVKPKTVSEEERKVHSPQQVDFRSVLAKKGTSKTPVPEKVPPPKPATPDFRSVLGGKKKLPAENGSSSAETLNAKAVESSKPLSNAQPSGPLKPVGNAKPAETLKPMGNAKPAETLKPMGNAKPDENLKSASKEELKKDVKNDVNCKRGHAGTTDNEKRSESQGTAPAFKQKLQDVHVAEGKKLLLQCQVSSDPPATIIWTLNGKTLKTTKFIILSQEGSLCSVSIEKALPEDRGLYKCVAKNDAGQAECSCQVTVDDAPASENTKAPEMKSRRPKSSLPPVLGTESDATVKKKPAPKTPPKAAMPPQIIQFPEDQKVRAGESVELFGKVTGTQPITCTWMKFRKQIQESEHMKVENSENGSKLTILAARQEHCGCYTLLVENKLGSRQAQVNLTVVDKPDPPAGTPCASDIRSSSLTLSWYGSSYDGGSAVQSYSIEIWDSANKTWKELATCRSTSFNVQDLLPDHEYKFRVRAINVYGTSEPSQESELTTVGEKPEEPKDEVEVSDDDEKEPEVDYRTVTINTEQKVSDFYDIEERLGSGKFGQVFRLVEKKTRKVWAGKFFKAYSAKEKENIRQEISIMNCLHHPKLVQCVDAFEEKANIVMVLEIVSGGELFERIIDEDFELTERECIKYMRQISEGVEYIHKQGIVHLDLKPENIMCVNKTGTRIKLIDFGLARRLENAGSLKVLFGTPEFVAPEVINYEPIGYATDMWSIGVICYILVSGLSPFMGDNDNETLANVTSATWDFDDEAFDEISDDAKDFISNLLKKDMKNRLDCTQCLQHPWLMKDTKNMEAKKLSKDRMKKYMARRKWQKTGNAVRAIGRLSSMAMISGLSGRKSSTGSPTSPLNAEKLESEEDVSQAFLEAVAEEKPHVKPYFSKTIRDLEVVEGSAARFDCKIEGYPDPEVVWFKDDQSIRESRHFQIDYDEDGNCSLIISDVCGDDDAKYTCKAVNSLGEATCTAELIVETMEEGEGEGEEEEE
Structure (SMILES),residual activity (ACVR1 (human)) [%],residual activity (AURKA (human)) [%],residual activity (CDK5 CDK5R1 p35 (human)) [%],residual activity (CHUK (human)) [%],residual activity (CLK2 (human)) [%],residual activity (CSNK1E (human)) [%],residual activity (CSNK2A2 (human)) [%],residual activity (DCLK2 (human)) [%],residual activity (EPHA6 (human)) [%],residual activity (ERBB2 (human)) [%],residual activity (FGFR1 (human)) [%],residual activity (GRK6 (human)) [%],residual activity (MAP3K10 (human)) [%],residual activity (MAPK1 (human)) [%],residual activity (MAPK12 (human)) [%],residual activity (MARK2 (human)) [%],residual activity (MYLK (human)) [%],residual activity (MYO3B (human)) [%],residual activity (NEK7 (human)) [%],residual activity (NUAK2 (human)) [%],further results
Cc1cc2ncc(-c3ccccc3)nc2cc1C,91.8,92.1,89.1,86.9,102,85.5,90.3,100,93,97.4,91.9,103,97.8,88,87.3,84.5,102,99,102,124,residual activity (ABL1 (human)): 99.6%; residual activity (CDC42BPB (human)): 101%; residual activity (EGFR (human)): 84.5%; residual activity (EPHB4 (human)): 95.6%; residual activity (FES (human)): 97.3%; residual activity (PAK1 (human)): 97.8%; residual activity (PBK (human)): 94.5%; residual activity (PDGFRB (human)): 89.1%; residual activity (PLK1 (human)): 101%; residual activity (PLK2 (human)): 95%; residual activity (PRKACG (human)): 95.8%; residual activity (PRKCE (human)): 99.6%; residual activity (PRKD2 (human)): 96.5%; residual activity (RAF1 (human)): 95.6%; residual activity (STK38 (human)): 94.7%; residual activity (STK4 (human)): 98.6%; residual activity (TLK2 (human)): 100%; residual activity (ULK3 (human)): 86.4%; residual activity (WEE1 (human)): 105%
COc1cc2ncnc(Nc3ccc(F)c(Cl)c3)c2cc1OCCCN1CCOCC1,106,95.3,103,94.9,94.8,106,88.6,101,28.9,34.2,96.4,99.6,109,103,97.5,119,89.7,91.4,96.9,96,residual activity [1]: 95.3%; residual activity (BRAF (human)): 95.8%; residual activity (PAK1 (human)): 104%; residual activity (PBK (human)): 102%; residual activity (PDGFRB (human)): 93.9%; residual activity (PLK1 (human)): 97%; residual activity (PLK2 (human)): 100%; residual activity (PRKACG (human)): 107%; residual activity (PRKCE (human)): 97.3%; residual activity (RAF1 (human)): 90.9%; residual activity (STK38 (human)): 105%; residual activity (STK4 (human)): 101%; residual activity (TLK2 (human)): 80.4%; residual activity (ULK3 (human)): 108%; residual activity (WEE1 (human)): 93.8%
COc1cc2nccc(Oc3ccc(NC(=S)NC(=O)c4ccccc4C)cc3)c2cc1OC,93.5,18.9,100,98.3,107,95.1,96.6,91.5,33,102,75.7,91,91,89.3,96.8,82.3,104,83.4,106,106,residual activity (ABL1 (human)): 50.6%; residual activity (CDC42BPB (human)): 90.5%; residual activity (EGFR (human)): 89.7%; residual activity (EPHB4 (human)): 103%; residual activity (FES (human)): 96.7%; residual activity (PAK1 (human)): 101%; residual activity (PBK (human)): 81.3%; residual activity (PDGFRB (human)): 26.7%; residual activity (PLK1 (human)): 97.9%; residual activity (PLK2 (human)): 99.5%; residual activity (PRKACG (human)): 107%; residual activity (PRKCE (human)): 99.7%; residual activity (PRKD2 (human)): 86.8%; residual activity (RAF1 (human)): 97%; residual activity (STK38 (human)): 107%; residual activity (STK4 (human)): 95.6%; residual activity (TLK2 (human)): 85.3%; residual activity (ULK3 (human)): 86.8%; residual activity (WEE1 (human)): 89.6%

# — the kinase profiling compilation of Christmann-Franck et al. (2016)
